Measurements from ChEMBL document CHEMBL5038653, “A Brain-Penetrant and Bioavailable Pyrazolopiperazine BACE1 Inhibitor Elicits Sustained Reduction of Amyloid β In Vivo” (ACS Med Chem Lett, 2022).
In brackets after ≈: the same amount, converted by molar mass. Activity calls are given as the source filed them. The rule behind the calls is not given here.

How the values were obtained:
Beta-secretase 1 = Beta-secretase 1 (Homo sapiens, UniProt P56817); experiment: Inhibition of BACE1 (1 to 454 residues) (unknown origin) using APP harboring Swedish Lys/Met mutant-derived peptide as substrate by FRET assay
[1] = Ratio of apparent permeability across apical to basolateral side in the presence of P-gp inhibitor elacridar to the absence of P-gp inhibitor elacridar in dog MDCK-MDR1 cells at 5 uM incubated for 120 mins; format: ADME, cell-based, Canis lupus familiaris; conditions: 2 h
[2] = biological target: Voltage-gated inwardly rectifying potassium channel KCNH2 (Homo sapiens, UniProt Q12809); experiment: Inhibition of hERG expressed in HEK293 cells at -80 mV holding potential by automated patch-clamp method; format: toxicity, cell-based
[3] = Dissociation constant, pKa of the compound by fast UV-spectrometric titration analysis; format: physicochemical
[4] = Metabolic stability in human liver microsomes assessed as metabolite formation after 15 mins in presence of NADPH by LC-MS analysis; format: ADME, Microsome; conditions: 0.25 h
[5] = Metabolic stability in mouse liver microsomes assessed as metabolite formation after 15 mins in presence of NADPH by LC-MS analysis; format: ADME, Microsome; conditions: 0.25 h
Canis lupus familiaris = experiment: In vivo inhibition of BACE1 in Beagle dog assessed as reduction of amyloid beta (1 to 42 residues) levels in CSF at 2.5 mg/kg, po measured after 24 hrs by electrochemiluminescence assay; format: functional, organism-based
[6] = Free drug concentration in rat brain measured after 5 hrs by HPLC-MS/MS method; format: ADME, tissue-based
[7] = Free drug concentration in human plasma measured after 4.5 hrs by HPLC-MS/MS method; format: ADME, cell-free
[8] = Free drug concentration in mouse plasma measured after 4.5 hrs by HPLC-MS/MS method; format: ADME, cell-free
[9] = Free drug concentration in dog plasma measured after 4.5 hrs by HPLC-MS/MS method; format: ADME, cell-free, Canis lupus familiaris
Cytochrome P450 3A4 [10] = biological target: T1, Cytochrome P450 3A4 (Homo sapiens, UniProt P08684); experiment: Inhibition of human CYP3A4 by fluorescence plate reader analysis; format: ADME
Cytochrome P450 3A4 [11] = biological target: T1, Cytochrome P450 3A4; experiment: Inhibition of human CYP3A4 using testosterone as substrate by fluorescence plate reader analysis; format: ADME
Cytochrome P450 3A4 [12] = biological target: T1, Cytochrome P450 3A4; experiment: Inhibition of human CYP3A4 using midazolam as substrate by fluorescence plate reader analysis; format: ADME; conditions: for inhibition (INH): human
Cytochrome P450 1A2 = biological target: T2, Cytochrome P450 1A2 (Homo sapiens, UniProt P05177); experiment: Inhibition of human CYP1A2 by fluorescence plate reader analysis; format: ADME
T2 sequence (P05177 whole entry): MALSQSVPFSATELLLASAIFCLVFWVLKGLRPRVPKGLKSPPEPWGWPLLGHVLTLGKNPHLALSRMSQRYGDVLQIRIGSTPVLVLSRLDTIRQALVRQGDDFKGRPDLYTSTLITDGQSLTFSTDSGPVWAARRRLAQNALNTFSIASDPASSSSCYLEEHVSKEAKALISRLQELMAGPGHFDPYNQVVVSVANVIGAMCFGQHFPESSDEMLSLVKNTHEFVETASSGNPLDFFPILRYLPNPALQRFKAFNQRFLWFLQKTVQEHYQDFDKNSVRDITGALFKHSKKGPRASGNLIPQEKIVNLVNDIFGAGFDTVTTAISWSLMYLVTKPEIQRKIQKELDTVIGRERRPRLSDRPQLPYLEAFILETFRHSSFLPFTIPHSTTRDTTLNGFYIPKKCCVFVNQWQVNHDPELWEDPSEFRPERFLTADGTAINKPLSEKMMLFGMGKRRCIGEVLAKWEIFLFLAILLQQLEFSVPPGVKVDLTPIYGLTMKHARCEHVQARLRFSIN

Cytochrome P450 2C8 = biological target: T3, Cytochrome P450 2C8 (Homo sapiens, UniProt P10632); experiment: Inhibition of human CYP2C8 by fluorescence plate reader analysis; format: ADME
T3 sequence (P10632 whole entry): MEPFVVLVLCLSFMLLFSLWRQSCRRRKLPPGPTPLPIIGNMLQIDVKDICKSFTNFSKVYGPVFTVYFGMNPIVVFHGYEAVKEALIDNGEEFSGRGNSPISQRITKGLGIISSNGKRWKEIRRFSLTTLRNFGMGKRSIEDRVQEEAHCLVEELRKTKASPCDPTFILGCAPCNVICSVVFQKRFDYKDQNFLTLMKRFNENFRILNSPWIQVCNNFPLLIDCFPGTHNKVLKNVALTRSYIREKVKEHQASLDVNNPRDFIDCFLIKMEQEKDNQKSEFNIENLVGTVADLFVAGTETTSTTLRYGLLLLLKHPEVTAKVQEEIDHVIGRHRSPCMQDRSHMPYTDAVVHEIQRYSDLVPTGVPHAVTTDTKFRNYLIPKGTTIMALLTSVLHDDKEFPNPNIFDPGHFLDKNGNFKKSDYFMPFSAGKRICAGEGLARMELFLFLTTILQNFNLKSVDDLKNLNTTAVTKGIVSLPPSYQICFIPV

Cytochrome P450 2C9 = Cytochrome P450 2C9 (Homo sapiens, UniProt P11712); experiment: Inhibition of human CYP2C9 by fluorescence plate reader analysis; format: ADME
Cytochrome P450 2C19 = Cytochrome P450 2C19 (Homo sapiens, UniProt P33261); experiment: Inhibition of human CYP2C19 by fluorescence plate reader analysis; format: ADME
Cytochrome P450 3A4 [13] = biological target: T1, Cytochrome P450 3A4; experiment: Time dependent inhibition of human CYP3A4 using testosterone as substrate by fluorescence plate reader analysis; format: ADME
[14] = Half life in Beagle dog at 2.5 mg/kg, po; format: ADME, organism-based, Canis lupus familiaris; conditions: in vivo
[15] = In vivo inhibition of BACE1 in Beagle dog assessed as reduction of amyloid beta (1 to 42 residues) levels in CSF administered orally by electrochemiluminescence assay; format: functional, organism-based, Canis lupus familiaris; conditions: Canis lupus familiaris, Beagle
[16] = Total plasma concentration in Beagle dog at 2.5 mg/kg, po; format: ADME, organism-based, Canis lupus familiaris; conditions: in vivo
MDR1 = experiment: Efflux ratio of apparent permeability in dog MDCK-MDR1 cells; format: ADME, cell-based, Canis lupus familiaris
hERG (KCNH2) = hERG (KCNH2) (Homo sapiens, UniProt Q12809); experiment: Inhibition of hERG expressed in HEK293 cells at 3 uM at -80 mV holding potential by automated patch-clamp method; format: toxicity, cell-based; conditions: HEK293 cells expressing hERG
hERG (KCNH2), sequence (Q12809 whole entry): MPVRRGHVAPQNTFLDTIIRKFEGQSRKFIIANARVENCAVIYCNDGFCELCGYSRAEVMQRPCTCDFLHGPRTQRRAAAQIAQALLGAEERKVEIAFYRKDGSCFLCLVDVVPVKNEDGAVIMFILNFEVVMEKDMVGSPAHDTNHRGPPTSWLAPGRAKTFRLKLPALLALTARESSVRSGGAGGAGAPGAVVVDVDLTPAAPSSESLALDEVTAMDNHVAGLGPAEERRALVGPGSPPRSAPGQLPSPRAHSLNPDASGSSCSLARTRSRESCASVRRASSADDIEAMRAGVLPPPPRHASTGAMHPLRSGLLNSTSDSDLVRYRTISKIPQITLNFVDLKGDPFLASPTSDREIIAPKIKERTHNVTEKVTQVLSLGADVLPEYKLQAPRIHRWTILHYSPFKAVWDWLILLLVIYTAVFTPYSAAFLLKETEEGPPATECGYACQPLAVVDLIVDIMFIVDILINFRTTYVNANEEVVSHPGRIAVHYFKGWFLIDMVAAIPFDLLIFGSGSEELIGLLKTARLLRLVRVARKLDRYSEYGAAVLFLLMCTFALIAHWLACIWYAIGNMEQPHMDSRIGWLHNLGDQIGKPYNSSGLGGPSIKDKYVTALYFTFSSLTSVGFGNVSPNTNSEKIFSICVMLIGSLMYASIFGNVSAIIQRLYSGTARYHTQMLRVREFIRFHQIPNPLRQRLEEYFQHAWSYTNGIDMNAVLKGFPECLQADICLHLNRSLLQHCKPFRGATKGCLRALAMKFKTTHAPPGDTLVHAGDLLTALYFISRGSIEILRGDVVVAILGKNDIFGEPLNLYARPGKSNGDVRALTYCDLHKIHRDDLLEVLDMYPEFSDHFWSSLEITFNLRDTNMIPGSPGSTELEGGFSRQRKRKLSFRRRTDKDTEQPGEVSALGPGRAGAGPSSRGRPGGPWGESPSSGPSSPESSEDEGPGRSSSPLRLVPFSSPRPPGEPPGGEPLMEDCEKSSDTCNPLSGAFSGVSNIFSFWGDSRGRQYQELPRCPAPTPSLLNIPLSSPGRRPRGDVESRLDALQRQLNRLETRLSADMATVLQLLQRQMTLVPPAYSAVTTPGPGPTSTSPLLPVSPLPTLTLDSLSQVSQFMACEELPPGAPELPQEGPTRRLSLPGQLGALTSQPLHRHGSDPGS

Voltage-gated inwardly rectifying potassium channel KCNH2, sequence (Q12809 whole entry): as above
T1 sequence (P08684 whole entry): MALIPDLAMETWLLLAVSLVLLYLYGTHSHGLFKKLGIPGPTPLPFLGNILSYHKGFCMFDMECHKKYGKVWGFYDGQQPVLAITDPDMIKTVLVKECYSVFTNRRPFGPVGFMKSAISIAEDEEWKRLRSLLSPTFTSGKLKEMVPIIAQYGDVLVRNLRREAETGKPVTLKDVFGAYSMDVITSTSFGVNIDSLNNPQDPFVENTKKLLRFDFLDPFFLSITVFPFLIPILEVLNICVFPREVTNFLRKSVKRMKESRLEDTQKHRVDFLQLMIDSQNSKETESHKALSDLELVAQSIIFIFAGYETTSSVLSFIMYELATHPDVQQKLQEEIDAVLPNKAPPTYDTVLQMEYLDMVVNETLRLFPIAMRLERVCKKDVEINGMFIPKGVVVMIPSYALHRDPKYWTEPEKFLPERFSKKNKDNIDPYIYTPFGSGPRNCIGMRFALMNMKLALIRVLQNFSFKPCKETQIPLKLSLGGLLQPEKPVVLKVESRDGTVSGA
Beta-secretase 1, sequence (P56817 whole entry, the tested form may be a part): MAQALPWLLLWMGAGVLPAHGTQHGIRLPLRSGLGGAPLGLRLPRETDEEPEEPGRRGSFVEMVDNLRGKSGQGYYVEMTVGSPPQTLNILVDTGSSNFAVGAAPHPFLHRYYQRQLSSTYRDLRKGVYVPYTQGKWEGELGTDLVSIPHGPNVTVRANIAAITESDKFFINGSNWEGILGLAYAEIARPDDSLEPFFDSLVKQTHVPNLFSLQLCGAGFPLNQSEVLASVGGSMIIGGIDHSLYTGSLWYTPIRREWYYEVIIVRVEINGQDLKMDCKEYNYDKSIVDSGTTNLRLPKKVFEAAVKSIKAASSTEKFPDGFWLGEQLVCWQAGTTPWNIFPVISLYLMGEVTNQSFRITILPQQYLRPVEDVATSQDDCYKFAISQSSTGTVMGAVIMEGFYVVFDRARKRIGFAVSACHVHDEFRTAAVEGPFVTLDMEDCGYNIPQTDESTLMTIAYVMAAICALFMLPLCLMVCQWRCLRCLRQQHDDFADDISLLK
Cytochrome P450 2C9, sequence (P11712 whole entry): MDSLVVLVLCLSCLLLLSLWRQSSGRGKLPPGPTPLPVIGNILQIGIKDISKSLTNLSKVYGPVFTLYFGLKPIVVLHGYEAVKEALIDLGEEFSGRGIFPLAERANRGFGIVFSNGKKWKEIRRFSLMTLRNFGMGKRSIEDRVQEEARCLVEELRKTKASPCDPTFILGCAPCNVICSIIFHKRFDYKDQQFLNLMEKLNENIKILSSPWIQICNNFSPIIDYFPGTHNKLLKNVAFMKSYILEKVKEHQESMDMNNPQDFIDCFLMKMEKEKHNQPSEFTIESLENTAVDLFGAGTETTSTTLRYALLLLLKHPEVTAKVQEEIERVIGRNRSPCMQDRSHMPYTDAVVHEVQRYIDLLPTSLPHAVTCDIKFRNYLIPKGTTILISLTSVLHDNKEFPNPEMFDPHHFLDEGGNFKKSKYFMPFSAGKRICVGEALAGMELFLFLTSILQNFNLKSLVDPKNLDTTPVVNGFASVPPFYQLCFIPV
Cytochrome P450 2C19, sequence (P33261 whole entry): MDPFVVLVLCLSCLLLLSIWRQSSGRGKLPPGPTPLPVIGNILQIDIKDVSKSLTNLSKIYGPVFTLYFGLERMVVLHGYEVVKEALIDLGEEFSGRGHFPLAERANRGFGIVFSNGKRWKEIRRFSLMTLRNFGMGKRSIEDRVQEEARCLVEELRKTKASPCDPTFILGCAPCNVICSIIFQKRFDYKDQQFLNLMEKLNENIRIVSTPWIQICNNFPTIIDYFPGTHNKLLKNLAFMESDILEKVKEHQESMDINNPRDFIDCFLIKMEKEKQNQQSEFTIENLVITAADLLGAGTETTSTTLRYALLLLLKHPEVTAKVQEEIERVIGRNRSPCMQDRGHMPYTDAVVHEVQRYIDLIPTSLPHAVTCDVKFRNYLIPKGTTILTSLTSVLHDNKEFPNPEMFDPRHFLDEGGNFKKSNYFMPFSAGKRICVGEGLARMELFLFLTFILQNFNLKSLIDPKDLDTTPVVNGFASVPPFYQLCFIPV

Row | SMILES | IC50 (Beta-secretase 1) | IC50 [2] | IC50 (Cytochrome P450 3A4 [10]) | efflux ratio (MDR1) | also measured
1 | C[C@@]1(c2cc(NC(=O)c3ccc(C#N)cn3)ccc2F)Cn2cc(C#N)nc2C(N)=N1 | 13 nM | 6600 nM | – | – | Ratio [1]: 16.8; pKa [3]: 7; Drug metabolism [4]: 3%; Drug metabolism [5]: 95%
2 | C[C@@]1(c2cc(NC(=O)c3ccc(C#N)cn3)ccc2F)Cn2c(C#N)cnc2C(N)=N1 | 3.7 nM | > 10000 nM | 6700 nM | – | inhibition (Canis lupus familiaris): inactive; Ratio [1]: 9.3; pKa [3]: 7.2; Drug metabolism [4]: 34%; Drug metabolism [5]: 81%; fraction unbound at 5 h [6]: 0.15; fraction unbound at 4.5 h [7]: 0.2; fraction unbound at 4.5 h [8]: 0.06; fraction unbound at 4.5 h [9]: 0.32; IC50 (Cytochrome P450 3A4 [11]): 1500 nM; IC50 (Cytochrome P450 3A4 [12]): 6700 nM; IC50 (Cytochrome P450 1A2): > 10000 nM; IC50 (Cytochrome P450 2C8): > 10000 nM; IC50 (Cytochrome P450 2C9): > 10000 nM; IC50 (Cytochrome P450 2C19): > 10000 nM; IC50 (Cytochrome P450 3A4 [13]): 270 nM; half-life [14]: 8 h; EC50 [15]: 0.03 µg/mL (≈ 0.0724 µM); concentration [16]: 72 nM
3 | C[C@@]1(c2cc(NC(=O)c3ccc(F)cn3)ccc2F)Cn2nc(C#N)cc2C(N)=N1 | 2.8 nM | 3300 nM | – | 7 | –
4 | C[C@@]1(c2cc(NC(=O)c3cnc(OCF)cn3)ccc2F)Cn2nc(C#N)cc2C(N)=N1 | 2.3 nM | > 10000 nM | – | 8.5 | –
5 | Cc1nc(C(=O)Nc2ccc(F)c([C@]3(C)Cn4nc(C#N)cc4C(N)=N3)c2)co1 | 4.5 nM | > 10000 nM | – | 19.4 | –
6 | C[C@@]1(c2cc(NC(=O)c3ccc(C#N)cn3)ccc2F)Cn2nc(C#N)cc2C(N)=N1 | 1.7 nM | 4600 nM | – | 15.2 | inhibition at 3 µM (hERG (KCNH2)): 71%
7 | COc1cnc(C(=O)Nc2ccc(F)c([C@]3(C)Cn4c(C#N)cnc4C(N)=N3)c2)cn1 | 5.5 nM | > 10000 nM | 3100 nM | – | –
8 | C[C@@]1(c2cc(NC(=O)c3ccc(Cl)cn3)ccc2F)Cn2c(C#N)cnc2C(N)=N1 | 2.6 nM | > 10000 nM | 900 nM | – | inhibition (INH) (Cytochrome P450 3A4 [12]): Active
9 | C[C@@]1(c2cc(NC(=O)c3ccc(F)cn3)ccc2F)Cn2c(C#N)cnc2C(N)=N1 | 11.5 nM | > 10000 nM | 4400 nM | – | inhibition (INH) (Cytochrome P450 3A4 [12]): Active
10 | CC(C)(C)OC(=O)Nc1ccc(F)c([C@]2(C)Cn3c(C#N)cnc3C(N)=N2)c1 | – | – | – | – | inhibition (INH) (Cytochrome P450 3A4 [12]): Active
11 | C[C@@]1(c2cc(NC(=O)c3ccc(OC(F)F)cn3)ccc2F)Cn2nc(C#N)cc2C(N)=N1 | 1.4 nM | 6600 nM | – | 7 | –
12 | C[C@@]1(c2cc(NC(=O)c3cnc(C(F)F)cn3)ccc2F)Cn2nc(C#N)cc2C(N)=N1 | 3.7 nM | > 10000 nM | – | 11.5 | –
13 | C[C@@]1(c2cc(NC(=O)c3ccc(C#N)cn3)ccc2F)Cn2ccnc2C(N)=N1 | – | – | – | – | inhibition at 3 µM (hERG (KCNH2)): 76%
